# Tests used:
# Escherichia coli [1] = experiment: Antibacterial activity against tolC-deficient Escherichia coli JW5503-1 by broth microdilution method; assay type: functional
# Escherichia coli [2] = experiment: Antibacterial activity against wild type Escherichia coli ATCC 25922 by broth microdilution method; assay type: functional
# [3] = Inhibition of Escherichia coli recombinant gyrase A2B2 assessed as reduction of pHOT-1 supercoiling after 90 mins
# Pseudomonas aeruginosa [4] = experiment: Antibacterial activity against Pseudomonas aeruginosa K1542 deficient with mexX, mexB by broth microdilution method; assay type: functional
# Escherichia coli [5] = experiment: Antibacterial activity against fluoroquinolone-resistant Escherichia coli CH10 harboring gyrA S83L D87N, parC S80I E84G, AcrA+ by broth microdilution method; assay type: functional
# Pseudomonas aeruginosa [6] = experiment: Antibacterial activity against mexX, mexB deficient Pseudomonas aeruginosa NB52023-CDK006 harboring gyrAT83I and parC S87L by broth microdilution method; assay type: functional
# Staphylococcus aureus [7] = experiment: Antibacterial activity against fluoroquinolone-resistant Staphylococcus aureus NB01006-AVR005 harboring gyrA S84L, parC S80F, parE E471K by broth microdilution method; assay type: functional
# Pseudomonas aeruginosa [8] = experiment: Antibacterial activity against mexX, mexB deficient Pseudomonas aeruginosa NB52023-CDK005 harboring gyrAT83I by broth microdilution method; assay type: functional
# Escherichia coli [9] = experiment: Antibacterial activity against tolC-deficient Escherichia coli NB27005-CDY0039 expressing gyrA S83L […], parC S80I mutant by broth microdilution method; assay type: functional
# Pseudomonas aeruginosa [10] = experiment: Antibacterial activity against wild type Pseudomonas aeruginosa PAO1 by broth microdilution method; assay type: functional
# Escherichia coli [11] = experiment: Antibacterial activity against wild type Escherichia coli BW5328/pAH69 by broth microdilution method; assay type: functional
# Staphylococcus aureus [12] = experiment: Antibacterial activity against wild type methicillin-susceptible Staphylococcus aureus ATCC 49951 by broth microdilution method; assay type: functional
# Escherichia coli [13] = experiment: Antibacterial activity against wild type Escherichia coli MC4100 by broth microdilution method; assay type: functional
# Staphylococcus aureus [14] = experiment: Antibacterial activity against wild type Staphylococcus aureus ATCC 29213 by broth microdilution method; assay type: functional
# Escherichia coli [15] = experiment: Antibacterial activity against Escherichia coli imp-4213 by broth microdilution method; assay type: functional
Compound,MIC (Escherichia coli [1]),MIC (Escherichia coli [2]),IC50 [3],MIC (Pseudomonas aeruginosa [4]),MIC (Escherichia coli [5]),MIC (Pseudomonas aeruginosa [6]),MIC (Staphylococcus aureus [7]),MIC (Pseudomonas aeruginosa [8]),MIC (Escherichia coli [9]),MIC (Pseudomonas aeruginosa [10]),MIC (Escherichia coli [11]),MIC (Staphylococcus aureus [12]),MIC (Escherichia coli [13]),MIC (Staphylococcus aureus [14]),MIC (Escherichia coli [15])
C=CCCC(=O)N1CCN(c2cc3c(cc2F)c(=O)c(C(=O)O)cn3C2CC2)CC1,≤ 0.03 µg/mL,0.5 µg/mL,760 nM,2 µg/mL,> 32 µg/mL,> 32 µg/mL,32 µg/mL,> 32 µg/mL,2 µg/mL,16 µg/mL,1 µg/mL,0.25 µg/mL,1 µg/mL,0.25 µg/mL,≤ 0.03 µg/mL
O=C(CN1CCN(c2cc3c(cc2F)c(=O)c(C(=O)O)cn3C2CC2)CC1)NCCCN1CCN(CCCNC(=O)CN2CCN(c3cc4c(cc3F)c(=O)c(C(=O)O)cn4C3CC3)CC2)CC1,2 µg/mL,> 32 µg/mL,1590 nM,> 32 µg/mL,> 32 µg/mL,> 32 µg/mL,> 32 µg/mL,> 32 µg/mL,> 32 µg/mL,> 32 µg/mL,> 32 µg/mL,8 µg/mL,> 32 µg/mL,32 µg/mL,8 µg/mL
O=C(O)c1cn(C2CC2)c2cc(N3CCNCC3)c(F)cc2c1=O [CIPROFLOXACIN],≤ 0.03 µg/mL,≤ 0.03 µg/mL,460 nM,0.06 µg/mL,> 32 µg/mL,4 µg/mL,> 32 µg/mL,–,–,–,≤ 0.03 µg/mL,0.25 µg/mL,≤ 0.03 µg/mL,0.5 µg/mL,≤ 0.03 µg/mL
O=C(NCCCCC(=O)N1CCN(c2cc3c(cc2F)c(=O)c(C(=O)O)cn3C2CC2)CC1)c1cccc(C(=O)NCCCCC(=O)N2CCN(c3cc4c(cc3F)c(=O)c(C(=O)O)cn4C3CC3)CC2)c1,0.5 µg/mL,16 µg/mL,9970 nM,> 32 µg/mL,> 32 µg/mL,> 32 µg/mL,> 32 µg/mL,> 32 µg/mL,> 32 µg/mL,> 32 µg/mL,16 µg/mL,4 µg/mL,16 µg/mL,> 32 µg/mL,2 µg/mL
O=CN1CCN(c2cc3c(cc2F)c(=O)c(C(=O)O)cn3C2CC2)CC1,≤ 0.03 µg/mL,0.125 µg/mL,250 nM,0.25 µg/mL,> 32 µg/mL,32 µg/mL,32 µg/mL,16 µg/mL,4 µg/mL,2 µg/mL,0.125 µg/mL,0.25 µg/mL,0.25 µg/mL,0.25 µg/mL,≤ 0.03 µg/mL
O=C(O)c1cn(C2CC2)c2cc(N3CCN(C(=O)c4cccc(C(=O)N5CCN(c6cc7c(cc6F)c(=O)c(C(=O)O)cn7C6CC6)CC5)c4)CC3)c(F)cc2c1=O,0.125 µg/mL,> 32 µg/mL,110 nM,> 32 µg/mL,> 32 µg/mL,> 32 µg/mL,> 32 µg/mL,> 32 µg/mL,> 32 µg/mL,> 32 µg/mL,> 32 µg/mL,0.25 µg/mL,> 32 µg/mL,2 µg/mL,0.06 µg/mL
C=CCN1CCN(c2cc3c(cc2F)c(=O)c(C(=O)O)cn3C2CC2)CC1,≤ 0.03 µg/mL,≤ 0.03 µg/mL,580 nM,0.25 µg/mL,> 32 µg/mL,32 µg/mL,32 µg/mL,4 µg/mL,2 µg/mL,1 µg/mL,0.06 µg/mL,0.125 µg/mL,0.06 µg/mL,0.125 µg/mL,≤ 0.03 µg/mL
O=C(CCN1CCN(c2cc3c(cc2F)c(=O)c(C(=O)O)cn3C2CC2)CC1)NCCOCCNC(=O)CCN1CCN(c2cc3c(cc2F)c(=O)c(C(=O)O)cn3C2CC2)CC1,4 µg/mL,32 µg/mL,9090 nM,> 32 µg/mL,> 32 µg/mL,> 32 µg/mL,> 32 µg/mL,> 32 µg/mL,> 32 µg/mL,> 32 µg/mL,32 µg/mL,> 32 µg/mL,32 µg/mL,> 32 µg/mL,8 µg/mL
O=C(O)c1cn(C2CC2)c2cc(N3CCN(CCOCCOCCOCCN4CCN(c5cc6c(cc5F)c(=O)c(C(=O)O)cn6C5CC5)CC4)CC3)c(F)cc2c1=O,0.125 µg/mL,1 µg/mL,4040 nM,32 µg/mL,> 32 µg/mL,> 32 µg/mL,> 32 µg/mL,32 µg/mL,> 32 µg/mL,16 µg/mL,1 µg/mL,8 µg/mL,1 µg/mL,16 µg/mL,0.25 µg/mL
O=C(O)c1cn(C2CC2)c2cc(N3CCN(Cc4cccc(CN5CCN(c6cc7c(cc6F)c(=O)c(C(=O)O)cn7C6CC6)CC5)c4)CC3)c(F)cc2c1=O,0.06 µg/mL,1 µg/mL,1180 nM,8 µg/mL,> 32 µg/mL,> 32 µg/mL,32 µg/mL,> 32 µg/mL,> 32 µg/mL,32 µg/mL,2 µg/mL,0.25 µg/mL,2 µg/mL,0.5 µg/mL,≤ 0.03 µg/mL
O=C(O)c1cn(C2CC2)c2cc(N3CCN(CCOCCOCCOc4ccc5ccc(=O)oc5c4)CC3)c(F)cc2c1=O,≤ 0.03 µg/mL,1 µg/mL,6670 nM,8 µg/mL,> 32 µg/mL,> 32 µg/mL,> 32 µg/mL,> 32 µg/mL,> 32 µg/mL,16 µg/mL,1 µg/mL,2 µg/mL,2 µg/mL,2 µg/mL,0.125 µg/mL
Cc1cc(C(=O)N2CCN(c3cc4c(cc3F)c(=O)c(C(=O)O)cn4C3CC3)CC2)cc(C(=O)N2CCN(c3cc4c(cc3F)c(=O)c(C(=O)O)cn4C3CC3)CC2)c1,≤ 0.03 µg/mL,0.5 µg/mL,1160 nM,0.5 µg/mL,> 32 µg/mL,> 32 µg/mL,> 32 µg/mL,8 µg/mL,16 µg/mL,4 µg/mL,0.5 µg/mL,0.5 µg/mL,0.5 µg/mL,1 µg/mL,≤ 0.03 µg/mL
CC[C@H]1OC(=O)[C@H](C)[C@@H](O[C@H]2C[C@@](C)(OC)[C@@H](O)[C@H](C)O2)[C@H](C)[C@@H](O[C@@H]2O[C@H](C)C[C@H](N(C)C)[C@H]2O)[C@](C)(O)C[C@@H](C)C(=O)[C@H](C)[C@@H](O)[C@]1(C)O [ERYTHROMYCIN],2 µg/mL,> 32 µg/mL,–,> 32 µg/mL,> 32 µg/mL,> 32 µg/mL,0.5 µg/mL,> 32 µg/mL,2 µg/mL,> 32 µg/mL,32 µg/mL,0.25 µg/mL,> 32 µg/mL,0.25 µg/mL,2 µg/mL

# Source: ChEMBL document CHEMBL3603745, “Synthesis of ciprofloxacin dimers for evaluation of bacterial permeability in atypical chemical space” (Bioorg Med Chem Lett, 2015)
